Source: paper PMC5078040 (Oncotarget, 2016)

Key:
PI3Kδ = PI3Kδ (Homo sapiens, UniProt O00329); experiment: Kinase kinetic assay (ATP competition, ADP-Glo); format: biochemical; conditions: varied ATP concentration
Method: Kinetic analyses of PI3KCD were performed using a luminometric kinase assay varying the concentration of ATP using the ADP-Glo reagents (Promega). […] After 60 min incubation at RT, varied concentrations of ATP, 0.1mM substrate PIP2:PS were added and incubated for 60 min at 37°C. The overall rate of reaction was determined as the slope of the decreasing phase of the reaction. Each data point was collected in duplicate and kinetic parameters were obtained using Prism 5.0 (GraphPad Software, San Diego, CA).

[1] = target: T1, ABL1(M351T)-phosphorylated (Homo sapiens, UniProt P00519, M351T); experiment: KinomeScan; format: binding; conditions: 1uM
T1 construct: purchased DiscoveRx KINOMEscan

[2] = target: T2, ABL1(T315I)-nonphosphorylated (Homo sapiens, UniProt P00519, T315I); experiment: KinomeScan; format: binding; conditions: 1uM
T2 construct: purchased DiscoveRx KINOMEscan

ASK2 = target: T3, ASK2 (Homo sapiens, UniProt O95382); experiment: KinomeScan; format: binding; conditions: 1uM
T3 construct: purchased DiscoveRx KINOMEscan

BMPR2 = target: T4, BMPR2 (Homo sapiens, UniProt Q13873); experiment: KinomeScan; format: binding; conditions: 1uM
T4 construct: purchased DiscoveRx KINOMEscan

CAMK2A = target: T5, CAMK2A (Homo sapiens, UniProt Q9UQM7); experiment: KinomeScan; format: binding; conditions: 1uM
T5 construct: purchased DiscoveRx KINOMEscan
T5 sequence (Q9UQM7 whole entry): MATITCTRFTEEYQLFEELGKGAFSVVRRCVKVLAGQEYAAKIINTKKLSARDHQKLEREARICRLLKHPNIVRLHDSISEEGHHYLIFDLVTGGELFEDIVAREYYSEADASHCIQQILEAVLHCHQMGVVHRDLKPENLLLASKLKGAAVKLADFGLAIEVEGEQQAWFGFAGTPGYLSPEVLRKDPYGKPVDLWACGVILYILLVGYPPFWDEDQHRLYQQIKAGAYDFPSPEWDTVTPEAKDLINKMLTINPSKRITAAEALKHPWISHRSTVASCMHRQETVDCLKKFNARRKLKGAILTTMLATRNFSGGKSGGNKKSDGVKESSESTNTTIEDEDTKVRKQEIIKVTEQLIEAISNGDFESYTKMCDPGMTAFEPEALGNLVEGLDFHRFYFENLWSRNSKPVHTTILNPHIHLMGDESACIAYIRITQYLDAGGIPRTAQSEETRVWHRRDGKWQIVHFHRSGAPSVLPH

CSNK1E = target: T6, CSNK1E (Homo sapiens, UniProt P49674); experiment: KinomeScan; format: binding; conditions: 1uM
T6 construct: purchased DiscoveRx KINOMEscan

DLK = target: T7, DLK (Homo sapiens, UniProt Q12852); experiment: KinomeScan; format: binding; conditions: 1uM
T7 construct: purchased DiscoveRx KINOMEscan

DMPK2 = target: T8, DMPK2 (Homo sapiens, UniProt Q6DT37); experiment: KinomeScan; format: binding; conditions: 1uM
T8 construct: purchased DiscoveRx KINOMEscan

DYRK2 = target: T9, DYRK2 (Homo sapiens, UniProt Q92630); experiment: KinomeScan; format: binding; conditions: 1uM
T9 construct: purchased DiscoveRx KINOMEscan

ERBB3 = target: T10, ERBB3 (Homo sapiens, UniProt P21860); experiment: KinomeScan; format: binding; conditions: 1uM
T10 construct: purchased DiscoveRx KINOMEscan

ERK8 = target: T11, ERK8 (Homo sapiens, UniProt Q8TD08); experiment: KinomeScan; format: binding; conditions: 1uM
T11 construct: purchased DiscoveRx KINOMEscan
T11 sequence (Q8TD08 whole entry): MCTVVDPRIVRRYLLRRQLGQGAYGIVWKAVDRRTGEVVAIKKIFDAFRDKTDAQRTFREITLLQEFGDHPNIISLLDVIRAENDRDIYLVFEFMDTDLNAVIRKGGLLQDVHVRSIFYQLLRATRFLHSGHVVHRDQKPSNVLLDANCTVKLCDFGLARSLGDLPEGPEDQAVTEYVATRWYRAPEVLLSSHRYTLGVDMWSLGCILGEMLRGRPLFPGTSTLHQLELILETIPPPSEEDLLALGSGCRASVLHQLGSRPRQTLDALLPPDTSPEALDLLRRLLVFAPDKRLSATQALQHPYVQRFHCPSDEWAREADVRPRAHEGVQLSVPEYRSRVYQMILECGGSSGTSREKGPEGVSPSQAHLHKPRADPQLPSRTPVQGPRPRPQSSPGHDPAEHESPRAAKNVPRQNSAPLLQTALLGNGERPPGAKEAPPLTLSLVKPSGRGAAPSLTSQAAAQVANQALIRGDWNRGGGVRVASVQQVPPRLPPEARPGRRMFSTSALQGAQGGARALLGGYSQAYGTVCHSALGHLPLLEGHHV

FGFR3 = target: T12, FGFR3 (Homo sapiens, UniProt P22607); experiment: KinomeScan; format: binding; conditions: 1uM
T12 construct: purchased DiscoveRx KINOMEscan

FLT3 = target: T13, FLT3 (Homo sapiens, UniProt P36888); experiment: KinomeScan; format: binding; conditions: 1uM
T13 construct: purchased DiscoveRx KINOMEscan

GCN2(Kin.Dom.2,S808G) = target: T14, GCN2(Kin.Dom.2,S808G) (Homo sapiens, UniProt Q9P2K8, S808G); experiment: KinomeScan; format: binding; conditions: 1uM
T14 construct: GCN2(Kin.Dom.2,S808G); purchased DiscoveRx KINOMEscan

HCK = target: T15, HCK (Homo sapiens, UniProt P08631); experiment: KinomeScan; format: binding; conditions: 1uM
T15 construct: purchased DiscoveRx KINOMEscan

KIT-autoinhibited = target: T16, KIT-autoinhibited (Homo sapiens, UniProt P10721); experiment: KinomeScan; format: binding; conditions: 1uM
T16 construct: purchased DiscoveRx KINOMEscan

LCK = target: T17, LCK (Homo sapiens, UniProt P06239); experiment: KinomeScan; format: binding; conditions: 1uM
T17 construct: purchased DiscoveRx KINOMEscan
T17 sequence (P06239 whole entry): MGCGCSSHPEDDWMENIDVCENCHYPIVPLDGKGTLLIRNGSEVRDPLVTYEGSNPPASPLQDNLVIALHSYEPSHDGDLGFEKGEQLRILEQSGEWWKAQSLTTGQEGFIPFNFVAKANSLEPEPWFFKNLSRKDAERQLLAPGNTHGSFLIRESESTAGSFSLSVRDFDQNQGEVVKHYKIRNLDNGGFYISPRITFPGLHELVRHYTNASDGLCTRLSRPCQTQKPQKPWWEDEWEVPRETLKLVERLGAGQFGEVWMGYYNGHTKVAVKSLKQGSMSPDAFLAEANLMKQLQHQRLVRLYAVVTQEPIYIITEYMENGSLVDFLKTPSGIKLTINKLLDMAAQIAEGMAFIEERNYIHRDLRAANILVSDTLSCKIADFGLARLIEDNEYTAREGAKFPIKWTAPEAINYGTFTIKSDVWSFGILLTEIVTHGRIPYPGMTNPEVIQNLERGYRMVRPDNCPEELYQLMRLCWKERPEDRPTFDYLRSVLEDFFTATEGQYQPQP

MAP3K3 = target: T18, MAP3K3 (Homo sapiens, UniProt Q99759); experiment: KinomeScan; format: binding; conditions: 1uM
T18 construct: purchased DiscoveRx KINOMEscan

MARK1 = target: T19, MARK1 (Homo sapiens, UniProt Q9P0L2); experiment: KinomeScan; format: binding; conditions: 1uM
T19 construct: purchased DiscoveRx KINOMEscan

MYLK2 = target: T20, MYLK2 (Homo sapiens, UniProt Q9H1R3); experiment: KinomeScan; format: binding; conditions: 1uM
T20 construct: purchased DiscoveRx KINOMEscan
T20 sequence (Q9H1R3 whole entry): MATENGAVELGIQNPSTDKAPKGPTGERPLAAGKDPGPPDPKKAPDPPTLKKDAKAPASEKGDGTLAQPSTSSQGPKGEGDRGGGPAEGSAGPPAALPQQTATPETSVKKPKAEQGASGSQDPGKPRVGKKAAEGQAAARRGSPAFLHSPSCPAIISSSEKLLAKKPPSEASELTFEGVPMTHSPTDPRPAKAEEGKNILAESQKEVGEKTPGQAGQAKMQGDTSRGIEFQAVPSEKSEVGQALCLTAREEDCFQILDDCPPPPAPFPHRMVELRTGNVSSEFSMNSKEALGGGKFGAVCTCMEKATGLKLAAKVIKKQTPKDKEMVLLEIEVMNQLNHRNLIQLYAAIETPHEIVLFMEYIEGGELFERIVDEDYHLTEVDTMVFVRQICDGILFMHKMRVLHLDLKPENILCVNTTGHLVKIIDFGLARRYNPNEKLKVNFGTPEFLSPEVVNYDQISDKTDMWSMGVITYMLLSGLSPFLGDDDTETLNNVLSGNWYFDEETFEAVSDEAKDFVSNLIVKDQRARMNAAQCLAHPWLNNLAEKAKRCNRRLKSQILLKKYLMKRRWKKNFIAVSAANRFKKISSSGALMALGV

NEK10 = target: T21, NEK10 (Homo sapiens, UniProt Q6ZWH5); experiment: KinomeScan; format: binding; conditions: 1uM
T21 construct: purchased DiscoveRx KINOMEscan

PCTK1 = target: T22, PCTK1 (Homo sapiens, UniProt Q00536); experiment: KinomeScan; format: binding; conditions: 1uM
T22 construct: purchased DiscoveRx KINOMEscan
T22 sequence (Q00536 whole entry): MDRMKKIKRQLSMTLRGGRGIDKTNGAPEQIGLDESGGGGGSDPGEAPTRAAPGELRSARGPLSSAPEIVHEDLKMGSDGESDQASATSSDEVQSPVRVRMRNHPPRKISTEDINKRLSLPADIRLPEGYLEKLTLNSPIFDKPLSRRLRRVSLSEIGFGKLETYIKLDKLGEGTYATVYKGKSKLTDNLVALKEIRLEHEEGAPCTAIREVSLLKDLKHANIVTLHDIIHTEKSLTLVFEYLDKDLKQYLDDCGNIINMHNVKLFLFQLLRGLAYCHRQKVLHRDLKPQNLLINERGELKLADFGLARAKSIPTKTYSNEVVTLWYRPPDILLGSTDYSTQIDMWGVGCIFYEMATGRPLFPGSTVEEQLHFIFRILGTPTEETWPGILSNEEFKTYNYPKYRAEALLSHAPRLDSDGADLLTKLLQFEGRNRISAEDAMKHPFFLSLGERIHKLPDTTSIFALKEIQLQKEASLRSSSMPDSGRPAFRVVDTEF

PDGFRB = target: T23, PDGFRB (Homo sapiens, UniProt P09619); experiment: KinomeScan; format: binding; conditions: 1uM
T23 construct: purchased DiscoveRx KINOMEscan

PIK4CB = target: T24, PIK4CB (Homo sapiens, UniProt Q9UBF8); experiment: KinomeScan; format: binding; conditions: 1uM
T24 construct: purchased DiscoveRx KINOMEscan
T24 sequence (Q9UBF8 whole entry): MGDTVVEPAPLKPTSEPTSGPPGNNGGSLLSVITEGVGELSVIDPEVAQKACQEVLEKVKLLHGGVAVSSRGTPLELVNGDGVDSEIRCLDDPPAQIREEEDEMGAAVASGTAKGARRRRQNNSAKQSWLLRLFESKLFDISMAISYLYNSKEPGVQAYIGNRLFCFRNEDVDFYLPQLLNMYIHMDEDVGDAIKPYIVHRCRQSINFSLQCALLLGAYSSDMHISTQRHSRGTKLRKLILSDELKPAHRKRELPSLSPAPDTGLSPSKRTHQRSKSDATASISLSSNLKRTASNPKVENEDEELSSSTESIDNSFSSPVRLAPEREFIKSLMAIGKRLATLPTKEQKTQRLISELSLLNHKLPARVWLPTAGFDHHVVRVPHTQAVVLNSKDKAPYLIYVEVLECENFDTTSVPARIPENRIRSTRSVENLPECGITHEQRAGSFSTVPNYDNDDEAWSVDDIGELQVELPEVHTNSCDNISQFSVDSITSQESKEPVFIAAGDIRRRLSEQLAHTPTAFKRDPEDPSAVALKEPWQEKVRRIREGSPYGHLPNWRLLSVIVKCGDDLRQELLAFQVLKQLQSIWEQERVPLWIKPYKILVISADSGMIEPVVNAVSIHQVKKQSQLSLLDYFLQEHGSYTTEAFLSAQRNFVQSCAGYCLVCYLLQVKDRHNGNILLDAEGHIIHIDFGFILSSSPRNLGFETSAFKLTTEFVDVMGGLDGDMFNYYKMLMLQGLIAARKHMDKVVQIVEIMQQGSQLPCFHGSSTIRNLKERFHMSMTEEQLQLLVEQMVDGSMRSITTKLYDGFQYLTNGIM

RIOK3 = target: T25, RIOK3 (Homo sapiens, UniProt O14730); experiment: KinomeScan; format: binding; conditions: 1uM
T25 construct: purchased DiscoveRx KINOMEscan

ROCK1 = target: T26, ROCK1 (Homo sapiens, UniProt Q13464); experiment: KinomeScan; format: binding; conditions: 1uM
T26 construct: purchased DiscoveRx KINOMEscan

SNRK = target: T27, SNRK (Homo sapiens, UniProt Q9NRH2); experiment: KinomeScan; format: binding; conditions: 1uM
T27 construct: purchased DiscoveRx KINOMEscan

STK35 = target: T28, STK35 (Homo sapiens, UniProt Q8TDR2); experiment: KinomeScan; format: binding; conditions: 1uM
T28 construct: purchased DiscoveRx KINOMEscan

TAOK2 = target: T29, TAOK2 (Homo sapiens, UniProt Q9UL54); experiment: KinomeScan; format: binding; conditions: 1uM
T29 construct: purchased DiscoveRx KINOMEscan

TNK1 = target: T30, TNK1 (Homo sapiens, UniProt Q13470); experiment: KinomeScan; format: binding; conditions: 1uM
T30 construct: purchased DiscoveRx KINOMEscan

TRKB = target: T31, TRKB (Homo sapiens, UniProt Q16620); experiment: KinomeScan; format: binding; conditions: 1uM
T31 construct: purchased DiscoveRx KINOMEscan

YANK3 = target: T32, YANK3 (Homo sapiens, UniProt Q86UX6); experiment: KinomeScan; format: binding; conditions: 1uM
T32 construct: purchased DiscoveRx KINOMEscan

PIK3C2B = target: T33, PIK3C2B (Homo sapiens, UniProt O00750); experiment: ADP-glo biochemical assay
T33 construct: purchased Invitrogen
T33 sequence (O00750 whole entry): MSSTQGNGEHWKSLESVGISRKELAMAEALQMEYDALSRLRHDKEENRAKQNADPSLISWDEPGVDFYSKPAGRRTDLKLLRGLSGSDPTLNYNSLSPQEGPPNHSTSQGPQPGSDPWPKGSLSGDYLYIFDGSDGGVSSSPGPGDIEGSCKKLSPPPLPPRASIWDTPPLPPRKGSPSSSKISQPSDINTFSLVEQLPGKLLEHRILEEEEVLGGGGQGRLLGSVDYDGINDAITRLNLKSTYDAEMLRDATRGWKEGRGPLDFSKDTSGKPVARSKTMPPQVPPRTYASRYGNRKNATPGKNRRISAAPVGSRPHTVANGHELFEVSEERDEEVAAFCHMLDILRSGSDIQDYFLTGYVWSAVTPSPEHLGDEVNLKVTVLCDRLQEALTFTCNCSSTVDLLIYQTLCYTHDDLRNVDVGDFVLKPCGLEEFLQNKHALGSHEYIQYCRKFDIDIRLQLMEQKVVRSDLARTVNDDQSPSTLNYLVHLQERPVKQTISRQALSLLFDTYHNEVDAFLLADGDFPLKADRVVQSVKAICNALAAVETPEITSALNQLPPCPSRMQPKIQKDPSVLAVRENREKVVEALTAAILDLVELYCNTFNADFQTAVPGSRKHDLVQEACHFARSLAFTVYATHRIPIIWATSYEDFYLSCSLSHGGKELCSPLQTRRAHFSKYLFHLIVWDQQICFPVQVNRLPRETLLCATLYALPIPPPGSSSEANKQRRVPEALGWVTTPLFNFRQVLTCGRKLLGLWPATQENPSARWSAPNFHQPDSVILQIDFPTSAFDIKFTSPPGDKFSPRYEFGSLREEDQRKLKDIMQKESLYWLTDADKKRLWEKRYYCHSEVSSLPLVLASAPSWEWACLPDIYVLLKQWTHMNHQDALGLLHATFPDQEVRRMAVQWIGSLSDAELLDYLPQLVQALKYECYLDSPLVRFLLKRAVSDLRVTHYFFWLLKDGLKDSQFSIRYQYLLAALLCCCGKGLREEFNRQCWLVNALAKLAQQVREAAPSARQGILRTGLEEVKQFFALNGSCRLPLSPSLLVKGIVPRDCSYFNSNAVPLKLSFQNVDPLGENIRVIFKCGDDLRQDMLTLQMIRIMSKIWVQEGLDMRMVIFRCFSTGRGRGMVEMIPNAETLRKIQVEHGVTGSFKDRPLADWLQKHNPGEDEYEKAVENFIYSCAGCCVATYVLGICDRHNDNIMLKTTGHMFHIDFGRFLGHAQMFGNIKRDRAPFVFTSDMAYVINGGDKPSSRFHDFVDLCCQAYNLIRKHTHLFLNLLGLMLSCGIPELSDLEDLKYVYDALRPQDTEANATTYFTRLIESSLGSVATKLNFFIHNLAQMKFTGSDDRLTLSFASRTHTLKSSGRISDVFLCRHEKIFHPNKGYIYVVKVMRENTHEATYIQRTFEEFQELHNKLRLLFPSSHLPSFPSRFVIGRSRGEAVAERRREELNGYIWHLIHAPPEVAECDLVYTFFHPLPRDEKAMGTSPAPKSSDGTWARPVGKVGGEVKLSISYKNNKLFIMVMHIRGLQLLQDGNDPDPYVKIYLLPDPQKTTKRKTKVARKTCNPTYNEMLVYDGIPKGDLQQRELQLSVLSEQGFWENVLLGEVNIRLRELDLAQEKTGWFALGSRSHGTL
Method: The reaction in each tube was started immediately by adding ATP and kept going for an hour under 37°C. After the tube cooled for 5 minutes at room temperature, 5 μL solvent reactions were carried out in a 384-well plate. Then 5 μL of ADP-Glo™ reagent was added into each well to stop the reaction and consume the remaining ADP within 40 minutes. At the end, 10 μL of kinase detection reagent was added into the well and incubated for 30 minutes to produce a luminescence signal. Luminescence signal was measured with an automated plate reader (Perkin-Elmer Envision) and each measurement was performed in triplicate.

HT (B-NHL) = experiment: Colony formation assay; format: cell-based; conditions: Homo sapiens, HT15, 360 h, 15 days, read-out: anti-colony formation EC50
Method: (§1) In brief, 1 mL of 3 % agarose combined with 1 mL HT, REC-1, MEC-1 and MOLM-13 growth media was used as the bottom agar in a 6-well plate. […] Cells were maintained in a humidified 5% CO2 incubator at 37°C for 15 days. On the 15th day, the numbers of colonies in each well were counted and each measurement was performed in triplicate.

MEC-1 (CLL) = experiment: Colony formation assay; format: cell-based; conditions: Homo sapiens, MEC1, 360 h; MEC-1, 15 days; read-out: anti-colony formation EC50
Method: as §1

MOLM13 (AML) = experiment: Colony formation assay; format: cell-based; conditions: Homo sapiens, MOLM-13, 360 h; MOLM13, 15 days; read-out: anti-colony formation EC50
Method: as §1

Cc1nc(NC(=O)[C@@H](N)C(C)C)sc1-c1cnc(Cl)c(NS(=O)(=O)c2ccccc2)c1 [PI3KD-IN-015]
binding kinetics / mode of inhibition (PI3Kδ): ATP competitive inhibitor | KinomeScan ABL1(M351T)-phosphorylated [1]: 98 | KinomeScan ABL1(T315I)-nonphosphorylated [2]: 100 | KinomeScan ASK2 (ASK2): 84 | KinomeScan BMPR2 (BMPR2): 96 | KinomeScan CAMK2A (CAMK2A): 94 | KinomeScan CSNK1E (CSNK1E): 100 | KinomeScan DLK (DLK): 99 | KinomeScan DMPK2 (DMPK2): 100 | KinomeScan DYRK2 (DYRK2): 100 | KinomeScan ERBB3 (ERBB3): 100 | KinomeScan ERK8 (ERK8): 98 | KinomeScan FGFR3 (FGFR3): 100 | KinomeScan FLT3 (FLT3): 100 | KinomeScan GCN2(Kin.Dom.2,S808G) (GCN2(Kin.Dom.2,S808G)): 100 | KinomeScan HCK (HCK): 100 | KinomeScan KIT-autoinhibited (KIT-autoinhibited): 100 | KinomeScan LCK (LCK): 100 | KinomeScan MAP3K3 (MAP3K3): 100 | KinomeScan MARK1 (MARK1): 100 | KinomeScan MYLK2 (MYLK2): 84 | KinomeScan NEK10 (NEK10): 83 | KinomeScan PCTK1 (PCTK1): 93 | KinomeScan PDGFRB (PDGFRB): 98 | KinomeScan PIK4CB (PIK4CB): 0.8 | KinomeScan RIOK3 (RIOK3): 96 | KinomeScan ROCK1 (ROCK1): 100 | KinomeScan SNRK (SNRK): 100 | KinomeScan STK35 (STK35): 92 | KinomeScan TAOK2 (TAOK2): 96 | KinomeScan TNK1 (TNK1): 100 | KinomeScan TRKB (TRKB): 100 | KinomeScan YANK3 (YANK3): 97 | IC50 (PIK3C2B): > 10000 nM | EC50 (HT (B-NHL)): 374 nM | EC50 (MEC-1 (CLL)): 765 nM | EC50 (MOLM13 (AML)): 215 nM
